Blank lines part the entries; values can stand above or below the compound they belong to.
Legend:
[1] = molecular target: T1, kinase domain protein of RC kinase (Homo sapiens, UniProt Q56UN5); assay: Enzymatic assay for kinase inhibitory activity (Crebtide substrate, LANCE readout), kinase domain protein; assay type: biochemical; conditions: test compound 1 μM, ATP 1 μM, Crebtide 50 nM
T1 sequence (Q56UN5 1061-1324 limits assumed): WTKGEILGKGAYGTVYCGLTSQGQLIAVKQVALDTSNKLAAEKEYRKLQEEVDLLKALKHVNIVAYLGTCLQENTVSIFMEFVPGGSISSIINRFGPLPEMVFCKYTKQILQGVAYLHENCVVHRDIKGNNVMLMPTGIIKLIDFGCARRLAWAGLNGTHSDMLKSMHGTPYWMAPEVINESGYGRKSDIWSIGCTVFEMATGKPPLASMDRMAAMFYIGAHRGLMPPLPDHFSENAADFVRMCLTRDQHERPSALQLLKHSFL
Method: Solutions of a test compound, Crebtide (a substrate), a kinase, and ATP were prepared using 1×MAPK Buffer (50 mM HEPES, 1 mM EGTA, […], 10 mM MgCl2, 2 mM DTT, and 0.01% Tween 20).
To each well, the test compound (1 μL) was first added (in duplicate) to reach a final concentration of 1 μM or 1×IC50 of the compound. The kinase (5 μL) was then added to each well to reach a final concentration of […] for the kinase domain or […] for the full-length domain. Each plate included a positive and negative controls in duplicate wells. Crebtide (2.5 μL) was then added to each well in duplicate to reach a final concentration of 50 nM. If the full-length kinase was used, the plates were incubated for 45 min at room temperature before proceeding further. ATP (2.5 μL) was added to each well to reach a final concentration of 1 μM for the kinase domain and 3 μM for the full-length.
After the addition of ATP, the plates were incubated for 45 min at room temperature. During the incubation, an EDTA solution (40 mM) and anti-Crebtide ([…]) were prepared. Additionally, a detection buffer stock solution was diluted ten fold before use.
After the incubation, the anti-Crebtide (5 μL) and EDTA (5 μL) were added to each well to reach their final concentrations of […] and 10 mM, respectively. The plates were allowed to develop at room temperature for 45 min. The plates were then read at 665 nm and 615 nm using Perkin Elmer Lance machine.
The biological results of inhibition of the kinase domain protein of RC kinase are summarized in Tables 2 and 3, wherein A represents at least 50% inhibition of the RC kinase activity at 1 μM; B represents no greater than 50% but at least 20% inhibition of the RC kinase activity at 1 μM; C represents no greater than 20% but at least 5% inhibition of the RC kinase activity at 1 μM; and D represents no greater than 5% inhibition of the RC kinase activity at 1 μM.

Structure (SMILES): COc1cc(OC)c(OC)cc1CNc1[nH]nc(Nc2cccnc2)c1C(N)=O [Compound D46, 3-(pyridin-3-ylamino)-5-((2,4,5-trimethoxybenzyl)amino)-1H-pyrazole-4-carboxamide]
melting point: 197 to 202 °C
inhibition at 1 µM [1]: 5 to 20%

Structure (SMILES): NC(=O)c1c(Nc2cccnc2)n[nH]c1NCc1ccc[nH]1 [Compound D53, 5-(((1H-pyrrol-2-yl)methyl)amino)-3-(pyridin-3-ylamino)-1H-pyrazole-4-carboxamide]
melting point: 201 to 206 °C
inhibition at 1 µM [1]: 5 to 20%

Structure (SMILES): NC(=O)c1c(Nc2cccc(Cl)c2)n[nH]c1NCc1ccc[nH]1 [Compound D59]
melting point: 193 to 198 °C
inhibition at 1 µM [1]: 5 to 20%

Structure (SMILES): CCOC(=O)c1cccc(Nc2n[nH]c(NCc3ccc(O)cc3)c2C(N)=O)c1 [Compound D67, ethyl 3-((4-carbamoyl-5-((4-hydroxybenzyl)amino)-1H-pyrazol-3-yl)amino)benzoate]
melting point: 132 to 136 °C
inhibition at 1 µM [1]: ≥ 50%

Structure (SMILES): COc1ccc(CNc2[nH]nc(Nc3cccc(Cl)c3)c2C(N)=O)c(OC)c1OC [Compound D69]
melting point: 196 to 200 °C
inhibition at 1 µM [1]: 5 to 20%

Structure (SMILES): COc1ccc(CNc2[nH]nc(Nc3cccc(Cl)c3)c2C(N)=O)c(C)c1 [Compound D73]
melting point: 195 to 199 °C
inhibition at 1 µM [1]: 20 to 50%

Structure (SMILES): NC(=O)c1c(Nc2ccc(N3CCOCC3)c(Cl)c2)n[nH]c1NCc1ccc(O)cc1 [Compound D75, 3-((3-chloro-4-morpholinophenyl)amino)-5-((4-hydroxybenzyl)amino)-1H-pyrazole-4-carboxamide]
melting point: 162 to 168 °C
inhibition at 1 µM [1]: ≥ 50%

Structure (SMILES): NC(=O)c1c(Nc2ccc3[nH]ncc3c2)n[nH]c1NCc1ccc(O)cc1 [Compound D76, 3-((1H-indazol-5-yl)amino)-5-((4-hydroxybenzyl)amino)-1H-pyrazole-4-carboxamide]
melting point: 250 to 260 °C
inhibition at 1 µM [1]: ≥ 50%

Structure (SMILES): CC(C)N1CCN(c2ccc(Nc3n[nH]c(NCc4ccc(O)cc4)c3C(N)=O)cc2)CC1 [Compound D82, 5-((4-hydroxybenzyl)amino)-3-((4-(4-isopropylpiperazin-1-yl)phenyl)amino)-1H-pyrazole-4-carboxamide]
melting point: 210 to 220 °C
inhibition at 1 µM [1]: ≥ 50%

Structure (SMILES): NC(=O)c1c(Nc2ccc(C(F)(F)F)nc2)n[nH]c1NCc1ccc(O)cc1 [Compound D91]
melting point: 259 to 265 °C
inhibition at 1 µM [1]: ≥ 50%

Structure (SMILES): COc1ccc(C(C)C)cc1CNc1[nH]nc(Nc2cccc(Cl)c2)c1C(N)=O [Compound D94]
melting point: 184 to 194 °C
inhibition at 1 µM [1]: 20 to 50%

Structure (SMILES): NC(=O)c1c(Nc2cccc(Cl)c2)n[nH]c1NCc1cccs1 [Compound D95, 3-((3-chlorophenyl)amino)-5-((thiophen-2-ylmethyl)amino)-1H-pyrazole-4-carboxamide]
melting point: 222 to 227 °C
inhibition at 1 µM [1]: ≤ 5%

Structure (SMILES): NC(=O)c1c(Nc2cccc(Cl)c2)n[nH]c1NCc1ccco1 [Compound D96, 3-((3-chlorophenyl)amino)-5-((furan-2-ylmethyl)amino)-1H-pyrazole-4-carboxamide]
melting point: 214 to 220 °C
inhibition at 1 µM [1]: 20 to 50%

Structure (SMILES): NC(=O)c1c(Nc2cccc(Cl)c2)n[nH]c1NCc1ccoc1 [Compound D97]
melting point: 219 to 221 °C
inhibition at 1 µM [1]: 5 to 20%

Structure (SMILES): NC(=O)c1c(Nc2ccc(N3CCOC(=O)C3)cc2)n[nH]c1NCc1ccc(O)cc1 [Compound D99, 5-((4-hydroxybenzyl)amino)-3-((4-(2-oxomorpholino)phenyl)amino)-1H-pyrazole-4-carboxamide]
melting point: 194 to 197 °C
inhibition at 1 µM [1]: ≥ 50%

Structure (SMILES): NC(=O)c1c(Nc2ccc(N3CCOCC3)c(F)c2)n[nH]c1NCc1ccc(O)cc1 [Compound D100]
melting point: 208 to 211 °C
inhibition at 1 µM [1]: ≥ 50%

Structure (SMILES): CC1CCN(C2CCN(c3ccc(Nc4n[nH]c(NCc5ccc(O)cc5)c4C(N)=O)cc3)CC2)CC1 [Compound D102, 5-((4-hydroxybenzyl)amino)-3-((4-(4-methyl-[1,4′-bipiperidin]-1′-yl)phenyl)amino)-1H-pyrazole-4-carboxamide]
melting point: 220 to 224 °C
inhibition at 1 µM [1]: ≥ 50%

Structure (SMILES): COc1cc(CNc2[nH]nc(NCc3ccc(O)cc3)c2C(N)=O)ccc1F [Compound D105]
melting point: 180 to 184 °C
inhibition at 1 µM [1]: 20 to 50%

Structure (SMILES): NC(=O)c1c(Nc2ccc(-c3ccccn3)cc2)n[nH]c1NCc1ccc(O)cc1 [Compound D109]
melting point: 217 to 221 °C
inhibition at 1 µM [1]: ≥ 50%

Structure (SMILES): NC(=O)c1c(Nc2ccc(N3CCN(C(=O)N4CCCCC4)CC3)cc2)n[nH]c1NCc1ccc(O)cc1 [Compound D110, 5-((4-hydroxybenzyl)amino)-3-((4-(4-(piperidine-1-carbonyl)piperazin-1-yl)phenyl)amino)-1H-pyrazole-4-carboxamide]
melting point: 236 to 240 °C
inhibition at 1 µM [1]: ≥ 50%

Structure (SMILES): COc1ccc(CNc2n[nH]c(NCc3ccc(O)cc3)c2C(N)=O)cn1 [Compound D112]
melting point: 178 to 180 °C
inhibition at 1 µM [1]: 20 to 50%

More lines, now with the values ahead:

melting point: 228 to 231 °C
inhibition at 1 µM [1]: ≥ 50%
Structure (SMILES): NC(=O)c1c(Nc2ccc(-n3ccnc3)cc2)n[nH]c1NCc1ccc(O)cc1 [Compound D60]

melting point: 169 to 174 °C
inhibition at 1 µM [1]: ≥ 50%
Structure (SMILES): Cc1ccc(Nc2n[nH]c(NCc3ccc(O)cc3)c2C(N)=O)cc1 [Compound D61, 5-((4-hydroxybenzyl)amino)-3-(p-tolylamino)-1H-pyrazole-4-carboxamide]

melting point: 167 to 172 °C
inhibition at 1 µM [1]: ≥ 50%
Structure (SMILES): CC(=O)c1ccc(Nc2n[nH]c(NCc3ccc(O)cc3)c2C(N)=O)cc1 [Compound D62, 3-((4-acetylphenyl)amino)-5-((4-hydroxybenzyl)amino)-1H-pyrazole-4-carboxamide]

melting point: 225 to 230 °C
inhibition at 1 µM [1]: ≥ 50%
Structure (SMILES): NC(=O)c1ccc(Nc2n[nH]c(NCc3ccc(O)cc3)c2C(N)=O)cc1 [Compound D63, 3-((4-carbamoylphenyl)amino)-5-((4-hydroxybenzyl)amino)-1H-pyrazole-4-carboxamide]

melting point: 200 to 203 °C
inhibition at 1 µM [1]: ≥ 50%
Structure (SMILES): N#CCc1ccc(Nc2n[nH]c(NCc3ccc(O)cc3)c2C(N)=O)cc1 [Compound D64, 3-((4-(cyanomethyl)phenyl)amino)-5-((4-hydroxybenzyl)amino)-1H-pyrazole-4-carboxamide]

melting point: 177 to 180 °C
inhibition at 1 µM [1]: ≥ 50%
Structure (SMILES): COc1cccc(Nc2n[nH]c(NCc3ccc(O)cc3)c2C(N)=O)c1 [Compound D65, 5-((4-hydroxybenzyl)amino)-3-((3-methoxyphenyl)amino)-1H-pyrazole-4-carboxamide]

melting point: 189 to 194 °C
inhibition at 1 µM [1]: ≥ 50%
Structure (SMILES): N#Cc1cccc(Nc2n[nH]c(NCc3ccc(O)cc3)c2C(N)=O)c1 [Compound D66, 3-((3-cyanophenyl)amino)-5-((4-hydroxybenzyl)amino)-1H-pyrazole-4-carboxamide]

melting point: 208 to 212 °C
inhibition at 1 µM [1]: ≥ 50%
Structure (SMILES): CCc1cccc(Nc2n[nH]c(NCc3ccc(O)cc3)c2C(N)=O)c1 [Compound D68, 3-((3-ethylphenyl)amino)-5-((4-hydroxybenzyl)amino)-1H-pyrazole-4-carboxamide]

melting point: 221 to 225 °C
inhibition at 1 µM [1]: ≥ 50%
Structure (SMILES): NC(=O)c1c(Nc2ccc(Cl)nc2)n[nH]c1NCc1ccc(O)cc1 [Compound D90, 3-((6-chloropyridin-3-yl)amino)-5-((4-hydroxybenzyl)amino)-1H-pyrazole-4-carboxamide]

melting point: 257 to 260 °C
inhibition at 1 µM [1]: ≥ 50%
Structure (SMILES): Cc1cn(-c2ccc(Nc3n[nH]c(NCc4ccc(O)cc4)c3C(N)=O)cc2)cn1 [Compound D98, 5-((4-hydroxybenzyl)amino)-3-((4-(4-methyl-1H-imidazol-1-yl)phenyl)amino)-1H-pyrazole-4-carboxamide]

melting point: 190 to 193 °C
inhibition at 1 µM [1]: ≥ 50%
Structure (SMILES): NC(=O)c1c(Nc2ccc(N)cc2)n[nH]c1NCc1ccc(O)cc1 [Compound D101, 3-((4-aminophenyl)amino)-5-((4-hydroxybenzyl)amino)-1H-pyrazole-4-carboxamide]

melting point: 270 to 275 °C
inhibition at 1 µM [1]: ≥ 50%
Structure (SMILES): NC(=O)c1c(Nc2ccc(S(N)(=O)=O)cc2)n[nH]c1NCc1ccc(O)cc1 [Compound D107, 5-((4-hydroxybenzyl)amino)-3-((4-sulfamoylphenyl)amino)-1H-pyrazole-4-carboxamide]

melting point: 258 to 266 °C
inhibition at 1 µM [1]: ≥ 50%
Structure (SMILES): NC(=O)c1c(Nc2ccc(-c3cnco3)cc2)n[nH]c1NCc1ccc(O)cc1 [Compound D111]

Reference: patent publication US8916555B2, “3,5-diaminopyrazole kinase inhibitors” (Axikin Pharmaceuticals, Inc., priority 2012, dated 2014)
